Reference: patent US20160095923A1, “ORAL COMPOSITION COMPRISNG (+)-CATECHIN” (VALORE, priority 2013, published 2016)

Tests used:
[1] = Bioavailability after oral administration or intravenous injection in Wistar rats (free/total polyphenol in plasma, LC-MS/MS)
Procedure: (§1) The experimental results described below were obtained on the basis of a study carried out in healthy human beings and in healthy Wistar rats weighing approximately 250 grams.
An acclimation period was observed before beginning the experiments.
The rats received an administration per os of a volume of 5 ml of a solution of active product.
(§2) With regard to taking the blood samples from the rats and from the human beings, the blood was collected in tubes internally coated with EDTA and was then centrifuged at 3000 rpm (revolutions per minute) at ambient temperature for 45 min, and then for 15 min at a temperature of 4° C. The plasma was then collected and stored at −70° C. before analysis.
(§3) The analytical technique (LC-MS/MS for Liquid Chromatography coupled to tandem Mass Spectrometry) for measuring the active substance in the blood was based on the method described by Mata-Bilbao et al., published in 2007 in the Journal of Agricultural and Food Chemistry, volume 55, page 8857.
(§4) The free (+)-catechin was extracted from the plasma with a solution of phosphoric acid, EDTA and ascorbic acid and was then purified by SPE (solid phase extraction); in particular, it is an Oasis™ HLB extraction which is analyzed by LC-MS/MS. The quantification was carried out according to a standard calibration procedure with (+/−)-catechin-2,3,4-^13C3 as internal standard (SI).
The procedure is identical with regard to the extraction and the quantification of free quercetin or ECGC in the blood.
With regard to the extraction and quantification of the total (+)-catechin, the procedure is the same as that applied to the free (+)-catechin, with the exception of the fact that an additional step prior to the purification by SPE is carried out.
Each of the mixtures is then solubilized in water.
Each of the mixtures is solubilized in water.

rat skin = test: Total incorporation and incorporation into collagen of 3H-proline in the skin; format: in vivo, Wistar rats; settings: 100 mg/kg by gavage for 5 days; for level of incorporation into collagen (IC) of 3H-hydroxyproline in rat skin / level of total incorporation (IT) of 3H-hydroxyproline in rat skin: treated subgroup
Procedure: To do this, a study was carried out in vivo on a batch of 24 female Wistar rats weighing from 95 to 115 g, divided into two groups C and D, each of 12 rats. For each group, the radioactive 3H-hydroxyproline, the specific activity of which is 13.6 Ci/10^−3 mol, was administered to all the animals by intraperitoneal injection of proline-L-(5-3H) at a dose, relative to the weight of the individuals, of 1 mCi/kg, which represents an activity in terms of radioactive 3H-proline of 100 μCi/individual.
6 rats of each group received a treatment based on monomeric (+)-catechin by gavage in a proportion of 100 mg/kg for 5 days before sacrifice. […] The group C received monomeric (+)-catechin hydrochlorolysinate, while the group D received monomeric (+)-catechin ascorbolysinate.
In table 8, the level of incorporation is measured by the number of disintegrations of the radioactive 3H-hydroxyproline per minute (dpm) per mg of dry weight. The higher this number, the higher the concentration of 3H-hydroxyproline.
In this comparative example, a group E of 12 Wistar rats weighing from 95 to 115 g, in which radioactive 3H-hydroxyproline, the specific activity of which is 13.6 Ci/10^−3 mol, was administered to all the individuals by intraperitoneal injection of proline-L-(5-3H) at a dose, relative to the weight of the individuals, of 1 mCi/kg, which represents an activity in terms of radioactive 3H-proline of 100 ρCi/individual.
6 rats of each group received a treatment based on pure monomeric (+)-catechin by gavage in a proportion of 100 mg/kg for 5 days before sacrifice.
In table 9, the level of incorporation is measured by the number of disintegrations of the radioactive 3H-hydroxyproline per minute (dpm) per mg of dry weight. The higher this number, the higher the concentration of 3H-hydroxyproline.

[2] = Bioavailability after oral administration in human beings (free monomeric (+)-catechin in plasma, LC-MS/MS); settings: in vivo, po
Procedure: as §1, §2, §3, §4
This complex salt is administered to a group A of 5 healthy volunteers.
This ct parameter makes it possible to calculate, from the data of table 1, the bioavailability of the (+)-catechin expressed in ng h/ml.

[3] = system: gastric ulcers in Mastomys; test: Incidence of gastric ulcers and histamine level in the gastric mucosa in ovalbumin-sensitized Mastomys; format: in vivo; settings: for histamine level (HL) in the gastric mucosa / number of animals exhibiting a gastric ulcer (NU): n = 12
Procedure: Mastomys in fact has a special system of cells which store histamine in the gastric mucosa; these cells can give rise to carcinoid tumors.
In this example, a sample of n=48 Mastomys are sensitized a first time by intraperitoneal injection of 3 μg of ovalbumin dissolved in 0.2 ml of saline solution containing 1 mg of aluminum hydroxide the ovalbumin which brings about anti-immunoglobulin E(IgE) and G(IgG) antibodies. After 7 days, a second injection of 1 mg of ovalbumin in 0.01 ml of saline solution is given in the gastric mucosa at the level of the corpus of the anesthetized animals, which causes an ulcerated lesion at the actual site of the injection.
The 48 rats are divided up into three groups: one of 24 and two of 12 individuals. The first group of 24 individuals (G1) received a placebo (concentrated NaCl solution at 0.15 M).
The histamine level is measured for the G1, G2 and G3 groups on the basis of a sample of n=12 individuals.

[4] = system: cancer patients (lymphoplasmocytic lymphoma; clear cell renal carcinoma); test: Treatment of patients suffering from cancer with 500 mg [C:Lys:HCl] complex salt tablet per day; format: in vivo, human; settings: for IgM level in the blood: lymphoplasmocytic lymphoma, 500 mg/day
Procedure: In the first patient a lymphoplasmocytic lymphoma (of Waldenström macroglobulinemia type) was detected during a post-operative blood test on day D0. The diagnosis is based on the electrophoretic detection of a monoclonal peak of immunoglobulins (IgM). This diagnosis was reconfirmed and the peak was assayed during a second analysis using the same detection by electrophoresis.
These immunoglobulins are found at a high concentration in the blood and in the urine. They therefore constitute real tumor markers. The assaying thereof gives an account of the number of sick cells and the extent of the disease and, consequently, makes it possible to monitor its progression under treatment.
Successive blood tests gave the following data for the IgM assay (in mg per 100 ml of plasma):
In the second patient, a left subclavicular cervical adenopathy was first of all detected on day D0. Next, 2 weeks later, a left renal adenocarcinoma was detected for this patient, which was followed by a nephrectomy of the left kidney 3 days after the detection of the adenocarcinoma in this kidney.
Thereafter, on day D0+3 months, a left cervical lymph node dissection is performed on the patient. This procedure was followed by a series of 15 radiotherapy sessions.
Starting from day D0+15 months (that is to say on day DT), the patient was orally administered a tablet of 500 mg of (+)-catechin hydrochlorolysinate per day.

[5] = free catechin, per os, dose equivalent to 100 mg/kg catechin, 5 rats
[6] = oral administration versus placebo

For `NCCCCC(N)C(=O)O.Oc1cc(O)c2c(c1)O[C@H](c1ccc(O)c(O)c1)[C@@H](O)C2` [[C:Lys/1:1], Complex of Monomeric (+)-Catechin and of Lysine in a Molar Equivalence Ratio of 1:1], the “T (max)” value [1, 5] was 1 h.

For monomeric (+)-catechin ascorbolysinate, the “increase in the level of incorporation versus control” value (rat skin) was “+14%”, the “level of incorporation into collagen (IC) of 3H-hydroxyproline in rat skin” value (rat skin) was 1117 ± 49 dpm/mg and the “level of total incorporation (IT) of 3H-hydroxyproline in rat skin” value (rat skin) was 5112 ± 259 dpm/mg.

In the case of `Cl.Cl.NCCCCC(N)C(=O)O.NCCCCC(N)C(=O)O.Oc1cc(O)c2c(c1)O[C@H](c1ccc(O)c(O)c1)[C@@H](O)C2` [[C:Lys:HCl/1:2:2]], the “total plasma concentration (ct) of free monomeric (+)-catechin” value ([1]; rat, in vivo, iv, 25 mg/kg) is reported as 87 970 ng min/ml, the “total plasma concentration (ct) of total monomeric (+)-catechin” value ([1]; rat, in vivo, iv, 25 mg/kg) is reported as 277 040 ng min/ml and the “total plasma concentration (ct) of total monomeric (+)-catechin” value ([1]; rat, in vivo, po, 25 mg/kg) is reported as 479 585 ng min/ml.

With `Cl.NCCCCC(N)C(=O)O.Oc1cc(O)c2c(c1)O[C@H](c1ccc(O)c(O)c1)[C@@H](O)C2` [monomeric (+)-catechin hydrochlorolysinate] the “T (max)” value [2] was 0.5 h, the “increase in c (max) compared with pure monomeric (+)-catechin” value [2] was “+103%” and the “increase in speed of passage into blood, T (max), compared with pure monomeric (+)-catechin” value [2] was “+166%”. The “ct, reported value on the curve in FIG. 5” value (“ct, reported value” for short) ([1]; rat, in vivo, 25 mg/kg) was 127 k ng min/ml, the “increase in the level of incorporation versus control” value (rat skin) was “+15%” and the “level of incorporation into collagen (IC) of 3H-hydroxyproline in rat skin” value (rat skin) was 1343 ± 48 dpm/mg. The “level of total incorporation (IT) of 3H-hydroxyproline in rat skin” value (rat skin) was 6248 ± 124 dpm/mg, the “histamine level (HL) in the gastric mucosa” value ([3]; G2, per os 2×300 mg a day) was 37.91 ± 3.73 10^−6 mg/kg of protein and the “number of animals exhibiting a gastric ulcer (NU)” value ([3]; G2, per os 2×300 mg a day) was 5. The “histamine level (HL) in the gastric mucosa” value ([3]; G3, intraperitoneally 100 mg) was 34.98 ± 3.52 10^−6 mg/kg of protein, the “number of animals exhibiting a gastric ulcer (NU)” value ([3]; G3, intraperitoneally 100 mg) was 6 and the “decrease in the histamine level in the gastric mucosa” value [3, 6] was −18%. For the same compound, the “decrease in the number of animals exhibiting a gastric ulcer” value [3, 6] was −72%, the “IgM level in the blood” value ([4]; first patient, DT + 4 months) was 2417 mg/100 ml and the “IgM level in the blood” value ([4]; first patient, DT + 9 months) was 2410 mg/100 ml. For the same compound, the “IgM level in the blood” value ([4]; first patient, DT + 15 months) was 2412 mg/100 ml, the “clinical course of IgM level under treatment” value ([4]; first patient, taken for a year and a half) was “stabilization below the maximum detected on day DT” and the clinical outcome ([4]; second patient, clear cell renal carcinoma, 500 mg/day from DT) was “stabilized the patient's condition”.

With `O=C(O[C@@H]1Cc2c(O)cc(O)cc2O[C@@H]1c1cc(O)c(O)c(O)c1)c1cc(O)c(O)c(O)c1` [pure EGCG, epigallocatechin gallate, reference compound] the “plasma levels measured (below reliable limits of detection)” value ([1]; free EGCG, per os, equivalent to 25 mg/kg polyphenol) was “below 250 ng/ml”.

In the case of `N=C(N)NCCCC(N)C(=O)O.Oc1cc(O)c2c(c1)O[C@H](c1ccc(O)c(O)c1)[C@@H](O)C2` [[C:Arg/1:1], Complex of Monomeric (+)-Catechin and of Arginine in a Molar Equivalence Ratio of 1:1], the “Δct (difference of ct to CP)” value ([1]; free catechin, per os, dose equivalent to 100 mg/kg catechin) is reported as “+21%” and the “T (max)” value [1, 5] is reported as 1 h.

With `Cl.Cl.Cl.NCCCCC(N)C(=O)O.NCCCCC(N)C(=O)O.NCCCCC(N)C(=O)O.Oc1cc(O)c2c(c1)O[C@H](c1ccc(O)c(O)c1)[C@@H](O)C2` [1:3:3] the “ct, calculated value” ([1]; rat, in vivo, 25 mg/kg) was 38 k ng min/ml.

For `Cl.Cl.Cl.NCCCCC(N)C(=O)O.NCCCCC(N)C(=O)O.NCCCCC(N)C(=O)O.Oc1cc(O)c2c(c1)O[C@H](c1ccc(O)c(O)c1)[C@@H](O)C2.Oc1cc(O)c2c(c1)O[C@H](c1ccc(O)c(O)c1)[C@@H](O)C2` [C:Lys:HCl/1:1.5:1.5], the “ct, reported value” value ([1]; rat, in vivo, 25 mg/kg) was 142 k ng min/ml.

For `Cl.Cl.NCCCCC(N)C(=O)O.NCCCCC(N)C(=O)O.O=c1c(O)c(-c2ccc(O)c(O)c2)oc2cc(O)cc(O)c12` [[Q:Lys:HCl/1:2:2], reference compound], the “Δct^q (difference of ct to QP)” value ([1]; rat, in vivo, 25 mg/kg) was “+18%”.

In the case of `Cl.Cl.Cl.Cl.Cl.NCCCCC(N)C(=O)O.NCCCCC(N)C(=O)O.NCCCCC(N)C(=O)O.NCCCCC(N)C(=O)O.NCCCCC(N)C(=O)O.Oc1cc(O)c2c(c1)O[C@H](c1ccc(O)c(O)c1)[C@@H](O)C2.Oc1cc(O)c2c(c1)O[C@H](c1ccc(O)c(O)c1)[C@@H](O)C2` [1:2.5:2.5], the “ct, reported value” value ([1]; rat, in vivo, 25 mg/kg) is reported as 105 k ng min/ml.

For `Cl.Cl.Cl.Cl.Cl.NCCCCC(N)C(=O)O.NCCCCC(N)C(=O)O.NCCCCC(N)C(=O)O.NCCCCC(N)C(=O)O.NCCCCC(N)C(=O)O.Oc1cc(O)c2c(c1)O[C@H](c1ccc(O)c(O)c1)[C@@H](O)C2` [1:5:5], the “ct, calculated value” ([1]; rat, in vivo, 25 mg/kg) was 26 k ng min/ml.

With `O=c1c(O)c(-c2ccc(O)c(O)c2)oc2cc(O)cc(O)c12` [QP, quercetin, reference compound] the “Δct^q (difference of ct to QP)” value ([1]; Wistar, rat, in vivo, 25 mg/kg) was 0%.

For `NCCCCC(N)C(=O)O.NCCCCC(N)C(=O)O.Oc1cc(O)c2c(c1)O[C@H](c1ccc(O)c(O)c1)[C@@H](O)C2` [[C:Lys/1:2], Complex of Monomeric (+)-Catechin and of Lysine in a Molar Equivalence Ratio of 1:2], the “T (max)” value [1, 5] was 2 h, the “Δct (difference of ct to CP)” value ([1]; free catechin, per os, equivalent to 25 mg/kg (comparative example 4)) was “+17%” and the “T (max)” value ([1]; free catechin, per os, equivalent to 25 mg/kg, 3 rats (comparative example 4)) was 1 h. For the same compound, the “Δct (difference of ct to CP)” value ([1]; total (+)-catechin, per os, equivalent to 25 mg/kg) was “+24%” and the “T (max)” value ([1]; total (+)-catechin, per os, equivalent to 25 mg/kg, 3 rats) was 1 h.
